PMC7822874, “Chemoprotective antimalarials identified through quantitative high-throughput screening of Plasmodium blood and liver stage parasites” (Scientific Reports, 2021)
Like-named read-outs stand apart in the source and are kept apart here.

Key:
[1] = test system: P. berghei-ANKA-GFP-LucCON liver stage parasites in HepG2-A16-CD81EGFP cells; assay: P. berghei liver stage Pb-Luc assay, Method 1 (UCSD, 1536-well); as to Pb-Luc signal, 1 uM, repeat 1: reference of the scale not given here; as to Pb-Luc signal, 1 uM, repeat 2: reference of the scale not given here; as to Pb-Luc signal, 1 uM, repeat 3: reference of the scale not given here; as to Pb-Luc signal, 3 uM, repeat 1: reference of the scale not given here; as to Pb-Luc signal, 3 uM, repeat 2: reference of the scale not given here; as to Pb-Luc signal, 3 uM, repeat 3: reference of the scale not given here; assay type: cell-based, Plasmodium berghei; settings: for activity at 1 µM / activity at 3 µM: 48 h, average of 2 wells, 1536-well plate; for activity at 1 µM: nominal 1 uM (10 mM stock), […] for 15 mM, 1.2 uM for 12 mM, 2 uM for 20 mM stock; for activity at 3 µM: nominal 3 uM (10 mM stock), 4.5 uM for 15 mM, 3.6 uM for 12 mM, 6 uM for 20 mM stock; for AC50 / Max Resp (signal direction of the dose response) / Log AC50 (M): Method 1; for Max Resp (signal direction of the dose response): Decrease = decreasing P. berghei viability with dose, Increase = increasing signal, Inactive = no dose response
[2] = test system: Plasmodium falciparum Dd2 asexual blood stage parasites; assay: microbe, parasite or virus in culture; set-up: species or system Plasmodium falciparum Dd2 in human erythrocytes; single determination (one 11-point concentration-response curve); settings: Plasmodium falciparum, DD2, Erythrocyte, 72 h; read-out: AC50
[3] = test system: luciferase-expressing P. berghei liver stage parasites in HepG2 cells; assay: Inhibition of liver-stage development assay (ILSDA), Method 2 (WRAIR, 96-well); assay type: cell-based, Plasmodium berghei; settings: for Max Resp (signal direction of the dose response): Method 2, Decrease = decreasing P. berghei viability with dose, Increase = increasing signal, Inactive = no dose response; for AC50: Plasmodium berghei, HepG2, Method 2
in vitro = settings: human
[4] = Plasmodium berghei, repeat 1, read-out: Pb-Luc signal, 1 uM, repeat 1
[5] = Plasmodium berghei, repeat 2, read-out: Pb-Luc signal, 1 uM, repeat 2
[6] = Plasmodium berghei, repeat 3, read-out: Pb-Luc signal, 1 uM, repeat 3
[7] = Plasmodium berghei, repeat 1, read-out: Pb-Luc signal, 3 uM, repeat 1
[8] = Plasmodium berghei, repeat 2, read-out: Pb-Luc signal, 3 uM, repeat 2
[9] = Plasmodium berghei, repeat 3, read-out: Pb-Luc signal, 3 uM, repeat 3
[10] = Plasmodium berghei, Hill fit, 50% of maximum activity response, read-out: AC50
[11] = Plasmodium berghei, log10 of molar AC50 from Hill fit, read-out: Log AC50 (converted)
[12] = nominal 1 uM (10 mM stock), […] for 15 mM, 1.2 uM for 12 mM, 2 uM for 20 mM stock, average of 2 wells, repeat 2
[13] = nominal 3 uM (10 mM stock), 4.5 uM for 15 mM, 3.6 uM for 12 mM, 6 uM for 20 mM stock, average of 2 wells, repeat 2
[14] = HepG2-A16-CD81EGFP cells, uninfected
[15] = Hill fit, 50% of maximum activity response, read-out: AC50
[16] = log10 of molar AC50 from Hill fit, read-out: Log AC50 (converted)
[17] = log10 of molar AC50 from Hill fit

Row | SMILES | activity at 1 µM [1, 4] | activity at 1 µM [1, 5] | activity at 1 µM [1, 6] | activity at 3 µM [1, 7] | activity at 3 µM [1, 8] | activity at 3 µM [1, 9] | AC50 [1, 10] | AC50 [1, 11] | HepG2 viability signal, 1 uM, repeat 2 (HepG2-A16-CD81EGFP cells; [12]) | HepG2 viability signal, 3 uM, repeat 2 (HepG2-A16-CD81EGFP cells; [13]) | AC50 [2] | Max Resp (signal direction of the dose response) [3] | Max Resp (signal direction of the dose response) [1] | viability at 48 h, 1 µM (in vitro; [14]) | viability at 48 h, 3 µM (in vitro; [14]) | AC50 [3, 15] | AC50 [3, 16] | AC50 [1, 15] | Log AC50 (M) [1, 17] | also measured
1 | COc1ccc(-c2cc(C(F)(F)F)nc(SCCC(=O)Nc3cc(C)ccc3O)n2)cc1 [NCGC00101472-01] | 38.3% | 70% | 108% | 2.83% | 48.6% | 51.1% | 2000 nM | 2000 nM | 103.33% | 103.42% | 1880 nM | Inactive | – | – | – | – | – | – | – | HepG2 viability signal, 1 uM, repeat 1 (HepG2-A16-CD81EGFP cells; nominal 1 uM (10 mM stock), […] for 15 mM, 1.2 uM for 12 mM, 2 uM for 20 mM stock, average of 2 wells, repeat 1): 98.35%
2 | CCc1ccc(C2Sc3ccccc3N=C3C2=C(O)c2ccccc23)cc1 (stereo not drawn) [NCGC00108831-01] | 12.1% | 58.2% | 12.7% | 2.42% | 50.9% | 62.2% | – | – | 104.01% | 104.74% | – | Decrease | Decrease | 103% | 105% | 398 nM | 398 nM | – | – | –
3 | COc1ccc(-n2nc(C)c([C@@H]3C=C[C@@H](NCc4cccc(Cl)c4)C3)c2C)cc1 [NCGC00391691-01] | 41.3% | 40.5% | 39.6% | 11.5% | 13.5% | 12.4% | 1580 nM | 1580 nM | 103.31% | 96.15% | 1370 nM | Decrease | Decrease | 104% | 102% | 1260 nM | 1260 nM | 2000 nM | -5.700 M | –
4 | CCC(CC)c1cc([C@H]2CN3CC[C@H]2C[C@@H]3CN[S+](=O)([O-])c2cccs2)nc(-c2ccncc2)n1 [NCGC00396883-01] | 64% | 69% | 109% | 37.8% | 32.5% | 35.3% | 501 nM | 501 nM | – | – | 2370 nM | Decrease | Decrease | – | – | 631 nM | 631 nM | 708 nM | -6.150 M | HepG2 viability signal, 1 uM, repeat 2 (HepG2-A16-CD81EGFP cells; human, 48 h, 1 µM): 98.83%; HepG2 viability signal, 3 uM, repeat 2 (HepG2-A16-CD81EGFP cells; human, 48 h, 3 µM): 99.98%; viability at 48 h, 1 µM (in vitro): 99.7%; viability at 48 h, 3 µM (in vitro): 102%
5 | COc1ccc(-c2ccc3ncc(Nc4ccc(C(N)=O)cc4)n3n2)cc1OC [NCGC00412552-01] | 38.8% | 64.3% | 74.5% | 2.42% | 48.9% | 27.1% | – | – | 102.54% | 100.89% | 2430 nM | Inactive | Inactive | 100% | 105% | – | – | – | – | –
6 | COc1ccc(Nc2cnc3ccc(-c4ccc(OC)c(OC)c4)nn23)cc1 [NCGC00412624-01] | 3.08% | 5.39% | 3.47% | -0.46% | -0.86% | -0.14% | 1410 nM | 1410 nM | 100.79% | 112.23% | 1720 nM | – | Decrease | 101% | 109% | – | – | – | – | Activity direction (Decrease / Inactive) ([3]; P. berghei liver stage, Method 2, dose response): Inactive
